Assay results published in patent US20110009493A1 (priority 2008, published 2011).
Read-outs that look alike come from different tables or passages of the source.

Key:
Pseudomonas aeruginosa = assay: Bacterial testing, ISO-GRID membrane filter system; type: cell-based; conditions: 400 ppm hard water; for Results (percent kill) / Results Log10 Reduction: 1 minute contact, 5% organic soil, bacteria 6.81 log10 (CFU/g); for Kill of Pseudomonas aeruginosa (in words): 1 minute, 5% soil
Protocol: • Bacteria (gram negative): Pseudomonas aeruginosa • Pathogenesis: Opportunistic pathogen in humans, cause of 1 in 10 nosocomial infections^1, causes wound, blood, burn, urinary tract, lung and ear infections. ^1http://textbookofbacteriology.net/pseudomonas.html • Concentration of Bacteria: 6.81 log10 (CFU/g) • Solution Contact Time: 1 minute • Dilution media: hard water (400 ppm) • Bio burden: 5% organic soil
The tests were performed using the ISO-GRID™ membrane filter system (Neogen Corp., Lansing, Mich., USA) according to a slightly modified procedure described in the ISO-GRID™ Methods Manual (3rd Ed.; QA Life Sciences, Inc., San Diego, Calif., USA; 1999).

Mycobacterium bovis = type: cell-based
[1] = ten minutes contact, 5% fetal bovine serum
[2] = ten minutes contact, 5% fetal bovine serum, 5.8*10^5 CFU/carrier

Molecule	Results (percent kill) (Pseudomonas aeruginosa) [%]	Results Log10 Reduction (Pseudomonas aeruginosa) [Log10]	Kill of Mycobacterium bovis (in words) (Mycobacterium bovis; [1])	Kill of Pseudomonas aeruginosa (in words) (Pseudomonas aeruginosa)	also measured
O=Cc1ccccc1C=O [compound 4, Orthophthalaldehyde]	40.2	2.74	–	–	–
didecyldimethylammomum bicarbonate/carbonate [1.]	–	–	–	–	Pass/Fail (Intermediate 30 day read) (Mycobacterium bovis): Fail; Results (Intermediate 30 day read) (Mycobacterium bovis): 1/10
Didecyldimethylammonium bicarbonate/carbonate [compound 3]	87.4	5.95	–	–	–
O=Cc1ccccc1C=O [OPA, orthophthalaldehyde]	–	–	neither OPA, nor DDABC alone was sufficient to provide complete kill	Neither OPA nor DDABC alone were sufficient to kill all	–
didecyldimethylammonium bicarbonate/carbonate [DDABC]	–	–	neither OPA, nor DDABC alone was sufficient to provide complete kill	Neither OPA nor DDABC alone were sufficient to kill all	–
O=Cc1ccccc1C=O [2., Orthophthalaldehyde]	–	–	–	–	Pass/Fail (Intermediate 30 day read) (Mycobacterium bovis; [2]): Fail; Results (Intermediate 30 day read) (Mycobacterium bovis; [2]): 1/10
